Laboratory results published in US20180036420A1, “METHODS FOR ENHANCING THE DELIVERY OF MOLECULES ACROSS THE BLOOD BRAIN BARRIER” (LAM Therapeutics, Inc., priority 2016, published 2018).

What was measured:
[1] = tested on: comprehensive panel of kinases (456 kinases); assay: Kinase panel binding screen (456 kinases, PIKfyve not included); settings: screening concentration 1 μM
Description: Next, apilimod was screened against a comprehensive panel of kinases (PIKfyve not included).

[2] = tested on: PI(3,5)P2 in H4 neuroglioma cells; assay: Immunostaining of PI(3,5)P2 in H4 neuroglioma cells; assay type: cell-based, human; settings: after 24 h
Description: (§1) PIKfyve produces the lipid products PI(3,5)P2 and PI5P, which in turn serve to establish membrane identity and control endolysosomal dynamics. Studies have shown that the PI(3,5)P2 depletion arising from inhibition of PIKfyve produces a swollen endolysosome phenotype. […] This phenotype was reversible, and cell lines reverted to normal appearance within 3-4 days after drug removal.

H4 neuroglioma cells = assay: DIC imaging of endolysosomal (vacuole) phenotype in H4 neuroglioma cells; assay type: cell-based, human
Description: FIG. 4: Left: DIC images of H4 transduced with either non-targeting shRNA (control) or hairpin targeted to the PIKFYVE gene (shPIKFYVE). Right: Viability of H4 cells after the induction of either control or PIKFYVE shRNA with doxycycline.
as §1

With `Cc1cccc(/C=N/Nc2cc(N3CCOCC3)nc(OCCc3ccccn3)n2)c1` [apilimod] the “binding to kinases of the panel” value [1] was “did not bind to any of the 456 kinases tested”, the “decrease of PI(3,5)P2” value [2] was roughly 70% and the “endolysosomal (vacuole) phenotype” value (H4 neuroglioma cells; H4 neuroglioma cells, 100 nM apilimod, 24 hrs (FIG. 3)) was “striking swollen endolysosomal (vacuole) phenotype”. The “time to revert to normal appearance after drug removal” value (H4 neuroglioma cells; after drug removal) was 3 to 4 days.
